Read-outs that look alike come from different tables or passages of the source. Some results are limits rather than exact numbers.

Data set [1] concerns morphine-induced Straub tail in mice. Put plainly: Narcotic antagonist (anti-Straub tail) test in mice. The format is in vivo. As to conditions: ip, 10 min; mouse, compound intraperitoneal, 10 min later 53 mg/kg morphine sulfate s.c.; compounds of the invention as hydrochloride salt; 135 mg/kg or higher = inactive; read-out: Antistraub Tail ED50 (Mouse ED50 Values).
Data set [2] has as its system pain induced by phenylquinone (writhing syndrome). In words: Phenylquinone writhing test (PQW), analgesic activity in mice. In kind it is in vivo, mice (fasted female white mice). The text has this:
Exp. Biol. Med. 95, 729 (1957). […] Rev. 11 115-145 (1947).

A short description of another data set: in vivo. On the set-up: species or system mice (CF1 S female). Conditions: sc, mouse.
The subject of data set [3] is Straub tail induced by morphine sulfate. In words: Modified Straub Tail Antagonism test. The format is in vivo, mice. As to conditions: Mus musculus, sc; test drug subcutaneous in 1% methyl cellulose with 1.25% Tween 80; morphine sulfate 35 mg/kg i.p. 5 min later; observed after 15 min for 5 min; read-out: ED 50 (modified Straub Tail Antagonism). As for the experimental part: The Straub Tail Antagonism test was modified by giving test drugs (in 1% methyl cellulose with 1.25% "Tween 80") subcutaneously, followed by intraperitoneal injection of morphine sulfate (at 35 mg/kg) 5 minutes after the test drug. […] ED 50's were calculated as above with a 95% confidence limit as described by Litchfield, J. Pharmacol. Exp. Ther. 96, 99 (1949).

Where [4] appears, read: 0.5 h, mouse, oral, observed for 10 min commencing 30 min after administration, compounds of the invention as hydrochloride salt, 135 mg/kg or higher = inactive, read-out: PQW ED50 (Mouse ED50 Values, POW).
The mark [5] stands for this setting: subcutaneous, within 25 minutes after dosing, compounds of the invention as hydrochloride salt, 135 mg/kg or higher = inactive, read-out: Straub Tail ED50 (Mouse ED50 Values).

Consider `CC(=O)Oc1ccc2c3c1O[C@H]1C(F)(F)CC[C@H]4[C@@H](C2)N(CC2CC2)CC[C@@]341` [Compound 30, 17-Cyclopropylmethyl-4,5α-epoxy-6,6-difluoro-3-acetoxymorphinan], for which the ED50 in data set [1] turned out to be 0.0031 mg/kg; in data set [2] (setting [4]) it was 2.2 mg/kg. Besides, the ED50 at 25 min in the data set “in vivo” (setting [5]) was greater than 18 mg/kg.
On to `COc1ccc2c3c1O[C@H]1C(F)=CC[C@H]4[C@@H](C2)N(C)CC[C@]314.Cl` [Compound 2, 17-Methyl-6,7-didehydro-4,5-epoxy-6-fluoro-3-methoxymorphinan Hydrochloride], for which, in data set [2] (setting [4]), the ED50 came to 8.5 mg/kg.
In the case of `Cl.Oc1ccc2c3c1OC1C(F)=CC[C@H]4[C@@H](C2)N(CC2CC2)CC[C@]314` (stereo partly drawn) [Compound 18, 17-Cyclopropylmethyl-6,7-didehydro-4,5-epoxy-6-fluoro-3-hydroxymorphinan Hydrochloride], the ED50 was 0.18 mg/kg in data set [1] and 7.2 mg/kg in data set [2] (setting [4]). Moreover, the ED50 at 25 min in “in vivo” (setting [5]) is greater than 135 mg/kg.
Take `CC(=O)Oc1ccc2c3c1O[C@H]1C(F)=CC[C@H]4[C@@H](C2)N(CC2CC2)CC[C@]314` [Compound 29, 17-Cyclopropylmethyl-6,7-didehydro-4,5α-epoxy-6-fluoro-3-acetoxymorphinan]: the ED50 in data set [1] was determined as 0.0022 mg/kg; in data set [2] (setting [4]) it was 1.3 mg/kg; in data set [2] (Mus musculus, sc, 0.25 h, subcutaneous, fifteen minutes after injection, read-out: ED50 (analgesic, subcutaneous injection)) it was 0.0016 mg/kg. The ED50 at 25 min in “in vivo” (setting [5]) is greater than 18 mg/kg.
Regarding `COc1ccc2c3c1O[C@H]1C(F)(F)CC[C@H]4[C@@H](C2)N(C)CC[C@@]341.Cl` [Compound 4, 17-Methyl-4,5-epoxy-6,6-difluoro-3-methoxymorphinan Hydrochloride], the ED50 in data set [1] was greater than 81 mg/kg. Besides, the ED50 at 25 min in “in vivo” (setting [5]) came to 10 mg/kg.
As for `Oc1ccc2c3c1OC1C(F)(F)CC[C@H]4[C@@H](C2)N(CC2CC2)CC[C@]314` (stereo partly drawn) [Compound 17, 17-Cyclopropylmethyl-4,5-epoxy-6,6-difluoro-3-hydroxymorphinan], the ED50 came out at 0.003 mg/kg in data set [1]; 0.0033 mg/kg in data set [3]; 2.6 mg/kg in data set [2] (0.5 h, mouse, oral, * peak time value (maximum activity within 30 min of administration), compounds of the invention as hydrochloride salt, read-out: PQW ED50 (Mouse ED50 Values, POW), peak time value). The ED50 at 25 min in “in vivo” (setting [5]) is greater than 54 mg/kg.
Turning to `COc1ccc2c3c1O[C@H]1[C@@H](O)C=C[C@H]4[C@@H](C2)N(C)CC[C@@]341` [Codeine PO4, reference compound], in the data set “in vivo” (setting [5]), the ED50 at 25 min is 202 mg/kg.
For the compound `CC(C)=CCN1CCC2(C)c3cc(O)ccc3CC1C2C` (stereo not drawn) [Pentazocine, reference compound], the ED50 in data set [3] was determined as 1.9 mg/kg.
On to `COc1ccc2c3c1OC1C(F)C=CC4C(C2)N(C)CCC341` (stereo not drawn) [Ayer 3,137,701, reference compound], for which the ED50 at 25 min in “in vivo” (setting [5]) was found to be 63 mg/kg.
On to `COc1ccc2c3c1OC1C(F)(F)CC[C@H]4[C@@H](C2)N(CC2CCC2)CC[C@]314.Cl` (stereo partly drawn) [Compound 10, 17-Cyclobutylmethyl-4,5-epoxy-6,6-difluoro-3-methoxymorphinan Hydrochloride], for which the ED50 at 25 min in the data set “in vivo” (setting [5]) was greater than 81 mg/kg.
As for `CN1CC[C@]23c4c5ccc(O)c4OC2C(F)=CC[C@H]3[C@H]1C5.Cl` (stereo partly drawn) [Compound 6, 17-Methyl-6,7-didehydro-4,5-epoxy-6-fluoro-3-hydroxymorphinan Hydrochloride], the ED50 in data set [2] (setting [4]) was found to be 8 mg/kg. Further, in “in vivo” (setting [5]), the ED50 at 25 min was determined as 17 mg/kg.
On to `COc1ccc2c3c1O[C@H]1C(F)(F)CC[C@@]4(O)[C@@H](C2)N(CC2CCC2)CC[C@]314.Cl` [Compound 26, 17-Cyclobutylmethyl-4,5α-epoxy-6,6-difluoro-14β-hydroxy-3-methoxymorphinan Hydrochloride], for which, in “in vivo” (setting [5]), the ED50 at 25 min is greater than 135 mg/kg.
In “in vivo” (135 mg/kg), `CN1CC[C@]23c4c5ccc(O)c4O[C@H]2[C@@H](O)C=C[C@H]3[C@H]1C5` [Morphine SO4, reference compound] had an ED50 at 25 min of 48 mg/kg.
In the case of `COc1ccc2c3c1OC1C(F)(F)CC[C@H]4[C@@H](C2)N(CC2CC2)CC[C@]314` (stereo partly drawn) [Compound 15, 17-Cyclopropylmethyl-4,5-epoxy-6,6-difluoro-3-methoxymorphinan], in the data set “in vivo” (setting [5]), the ED50 at 25 min is greater than 54 mg/kg.
On to `COc1ccc2c3c1OC1C(F)=CC[C@H]4[C@@H](C2)N(CC2CC2)CC[C@]314` (stereo partly drawn) [Compound 16, 17-Cyclopropylmethyl-6,7-didehydro-4,5-epoxy-6-fluoro-3-methoxymorphinan], for which, in the data set “in vivo” (setting [5]), the ED50 at 25 min was greater than 135 mg/kg.
